From patent publication US8404677B2, “Kinase inhibitors” (Genosco, priority 2009, dated 2013)
pIC50: −log10 of the molar value.

Key:
truncated human LRRK2 = truncated human LRRK2 (Homo sapiens, UniProt Q5S007); experiment: Inhibition of enzymatic kinase activity (LANCE Ulight); assay type: biochemical
human PIM1 = target: T1, human PIM1 (Homo sapiens, UniProt P11309); experiment: as above; assay type: biochemical; conditions: at 1 μM concentration; read-out: PIM1 percentage inhibition
T1 construct: Purified full-length human SYK, ZAP70, PIM1, PYK2; purchased Carna Biosciences
T1 sequence (P11309 whole entry): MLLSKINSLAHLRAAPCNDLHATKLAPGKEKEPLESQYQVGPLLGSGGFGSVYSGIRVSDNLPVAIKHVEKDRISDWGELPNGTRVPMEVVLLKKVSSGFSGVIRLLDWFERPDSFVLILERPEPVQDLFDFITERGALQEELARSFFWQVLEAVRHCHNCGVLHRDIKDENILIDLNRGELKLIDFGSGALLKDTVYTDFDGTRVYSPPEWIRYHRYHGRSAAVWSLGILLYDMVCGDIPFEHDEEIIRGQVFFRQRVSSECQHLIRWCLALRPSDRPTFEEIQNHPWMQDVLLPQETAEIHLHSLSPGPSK
Procedure: Inhibition of Enzymatic SYK, ZAP70, PYK2, FAK, PIM1, RET, FLT3, JAK2 and LRRK2 Kinase Activity
Compounds of the invention were initially diluted to 10 mM in 100% DMSO (CALBIOCHEM™) for storage and made into kinase buffer solution to create a compound concentration ranging from 1 uM and 10 uM. Serial dilutions of compounds of the invention were dispensed into a 96-well plate (GREINER BIOSCIENCES™) at 6 μL each. Purified full-length human SYK, ZAP70, PIM1, PYK2 and truncated human FAK, RET, FLT3, JAK2, and LRRK2 (CARNA BIOSCIENCES™) were diluted in kinase buffer and added to the compound solutions and pre-incubated for 30 minutes at room temperature (1 hour for PYK2). […] The reaction mixture was incubated for 1 hour (2 hours for PYK2). Following the incubation, the stop solution made with EDTA, water, and Lance detection buffer ([…]™) was added (12 μL each) to stop phosphorylation. […] Substrate phosphorylation was a function of the 665 nm emission measured following the addition of the detection solution and 50 minutes of incubation.

[1] = tested on: TNF-α release in THP-1 cells, IgG stimulation; experiment: SYK dependent TNF-α release assay (IgG stimulation); assay type: cell-based, human
Procedure: Compounds of the invention were tested for their TNF-α release effect on THP-1 cells. For SYK dependent TNF-α release assay (i.e., via IgG stimulation), THP-1 cells derived from human monocytic cells were obtained from the American Type Culture Collection (ATCC, Manassas, Va.). This cell line was maintained with an Roswell Park Memorial Institute (RPMI) medium (GIBCO™) containing 10 fetal bovine serum (FBS; GIBCO™) and 0.05 mM 2-mercaptoethanol. The THP-1 cells were seeded at 1×10^5 cells/100 μL/well into human IgG ([…], INVITROGEN™)-coated 96 well culture plate, and serially diluted compound was then added. After an 18-hour incubation period at 37° C., supernatants were collected for the determination of the TNF-α level by enzyme-linked immunosorbent assay (ELISA), and the remaining cells were subjected to an MTT (yellow tetrazolium salt) assay to determine the cytotoxic effects of compound.

A549/ATCC = experiment: cells; assay type: cell-based; conditions: A549/ATCC (NSCLC)
NCI-H522 = experiment: cells; assay type: cell-based; conditions: NCI-H522 (NSCLC)
SNB-19 = experiment: cells; assay type: cell-based; conditions: SNB-19 (CNS Cancer)
OVCAR-3 = experiment: cells; assay type: cell-based; conditions: OVCAR-3 (Ovarian Cancer)
OVCAR-5 = experiment: cells; assay type: cell-based; conditions: OVCAR-5 (Ovarian Cancer)
SK-OV-3 = experiment: cells; assay type: cell-based; conditions: SK-OV-3 (Ovarian Cancer)
786-0 = experiment: cells; assay type: cell-based; conditions: 786-0 (Renal Cancer)
ACHN = experiment: cells; assay type: cell-based; conditions: ACHN (Renal Cancer)
TK-10 = experiment: cells; assay type: cell-based; conditions: TK-10 (Renal Cancer)
HS 578T = experiment: cells; assay type: cell-based; conditions: HS 578T (Breast Cancer)
[2] = Homo sapiens, read-out: LC50 (the source's name)

Chain of truncated human LRRK2 (Q5S007 1879-2138 limits assumed): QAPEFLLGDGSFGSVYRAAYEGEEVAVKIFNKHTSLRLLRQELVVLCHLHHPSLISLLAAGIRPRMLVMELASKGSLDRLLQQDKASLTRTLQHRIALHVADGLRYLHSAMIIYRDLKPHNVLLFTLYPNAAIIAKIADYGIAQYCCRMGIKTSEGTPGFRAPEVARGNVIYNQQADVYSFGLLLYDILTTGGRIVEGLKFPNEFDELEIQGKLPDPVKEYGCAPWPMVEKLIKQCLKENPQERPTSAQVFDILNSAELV

In the case of `O=c1[nH]ccc2nc(N3CCC(O)CC3)nc(Nc3cccc(C(F)(F)F)c3)c12` [Compound 6, 2-(4-hydroxypiperidin-1-yl)-4-(3-(trifluoromethyl)phenylamino)pyrido[4,3-d]pyrimidine-5(6H)-one], the pIC50 (truncated human LRRK2) was 7.27, the inhibition at 1 µM (human PIM1) was 32% and the inhibition at 0.3 µM ([1]; Homo sapiens, IgG stimulation, At 0.3 μM, THP-1, read-out: Inhibition of TNF-α Release (percentage inhibition)) was 51.9%. For the same compound, the inhibition at 1 µM ([1]; Homo sapiens, IgG stimulation, At 1 μM, THP-1, read-out: Inhibition of TNF-α Release (percentage inhibition)) was 83%, the “percentage inhibition of TNF-α release compared with R406” value ([1]; IgG stimulated release, 0.3 μM) was “greater than those exhibited by R406” and the TGI (A549/ATCC) was 100 µM. For the same compound, the GI50 (A549/ATCC; Homo sapiens) was 3.8 µM, the pIC50 (A549/ATCC; Homo sapiens) was 5.20 and the CC50 (A549/ATCC; [2]) was 100 µM. It also gave a GI50 (NCI-H522; Homo sapiens) of 2.34 µM, a pIC50 (NCI-H522; Homo sapiens) of 5.12 and a CC50 (NCI-H522; [2]) of 34.7 µM. For the same compound, the TGI (NCI-H522) was 10 µM, the GI50 (SNB-19; Homo sapiens) was 18.2 µM and the pIC50 (SNB-19; Homo sapiens) was 4.19. The CC50 (SNB-19; [2]) was 100 µM, the TGI (SNB-19) was 100 µM and the GI50 (OVCAR-3; Homo sapiens) was 1.35 µM. It also gave a pIC50 (OVCAR-3; Homo sapiens) of 5.44, a CC50 (OVCAR-3; [2]) of 46.8 µM and a TGI (OVCAR-3) of 3.98 µM. It also gave a GI50 (OVCAR-5; Homo sapiens) of 28.2 µM, a pIC50 (OVCAR-5; Homo sapiens) of 4.13 and a CC50 (OVCAR-5; [2]) of 100 µM. It also gave a TGI (OVCAR-5) of 93.3 µM, a GI50 (SK-OV-3; Homo sapiens) of 0.49 µM and a pIC50 (SK-OV-3; Homo sapiens) of 4.70. The CC50 (SK-OV-3; [2]) was 100 µM, the TGI (SK-OV-3) was 100 µM and the TGI (786-0) was 100 µM. The GI50 (786-0; Homo sapiens) was 2.04 µM, the pIC50 (786-0; Homo sapiens) was 5.09 and the CC50 (786-0; [2]) was 100 µM. For the same compound, the TGI (ACHN) was 85.1 µM, the GI50 (ACHN; Homo sapiens) was 0.708 µM and the pIC50 (ACHN; Homo sapiens) was 5.65. The CC50 (ACHN; [2]) was 100 µM, the GI50 (TK-10; Homo sapiens) was 6.03 µM and the pIC50 (TK-10; Homo sapiens) was 4.44. It also gave a CC50 (TK-10; [2]) of 100 µM, a TGI (TK-10) of 44.7 µM and a TGI (HS 578T) of 14.1 µM. It also gave a GI50 (HS 578T; Homo sapiens) of 1.95 µM, a pIC50 (HS 578T; Homo sapiens) of 4.36 and a CC50 (HS 578T; [2]) of 100 µM.
